Experiments:
Format in all cases: cell-based
[1] = system: fibroblasts; experiment: DNA damage products 8-OHdG (kit) and γ-H2AX (immunofluorescence) in UV-A irradiated fibroblasts; details: Fibroblast, light or radiation study, 10-HDA 0.25 mg/mL, UV-A 30 J/cm^2, 24 hours after irradiation, relative to irradiated control without 10-HDA
Method: Fibroblasts were seeded into a 6-well plate at a seeding density of 2.2×10^5 cells/well and incubated overnight in an incubator (37° C., 5% CO2). When the confluence reached 40%-60%, 2 mL of culture medium containing a corresponding concentration of a test substance was added to each well according to different groups. The BC group was a blank control group without any drug intervention and was cultured only in 2 mL normal medium. The NC group was a negative control group without any drug intervention and was cultured only in 2 mL normal medium. The PC group was a positive control group containing VE at a final concentration of 7 μg/mL. The sample group contained 10-HDA at a final concentration of 0.25 mg/mL. After drug incubation for 24 hours, according to test groups, the NC group, PC group, and sample group were subjected to UV-A irradiation at a dose of 30 J/cm^2. After irradiation, the cells were further cultured for 24 hours in an incubator (37° C., 5% CO2). After incubation, cell culture supernatants were collected and tested according to the operation instructions of an 8-OHdG kit. […] Images were acquired under a fluorescence microscope and analyzed using Image-Pro® Plus image processing software.

[2] = system: 3D epidermal model; experiment: Regulation of ceramides and fatty acids in a 3D epidermal model (stratum corneum lipid extraction, LC-MS); details: 10-HDA 0.0625 mg/mL; relative to untreated control system
Method: The model was transferred to a 6-well plate pre-filled with 3.7 mL/well model culture medium and incubated for 24 hours in a CO2 incubator (37° C., 5% CO2). The positive control (PC) group contained WY-14643 (pirinixic acid) at a final concentration of 50 μM. In the sample group, 10-HDA was at a final concentration of 0.0625 mg/mL. After incubation, each model was cut into two halves. One half was used for protein measurement, and the other half was used for lipid extraction and placed in a 6-well plate (the model was stored at −80° C.). For lipid extraction, 1 mL trypsin was added to each well of the 6-well plate and incubated for 30 minutes in an incubator. Water was added on the lid of the 6-well plate. The model and the nylon membrane were separated with tweezers, and viscous material on the stratum corneum was peeled off with tweezers. Water on the stratum corneum was blotted dry with paper, and the stratum corneum was placed into a glass tube. 1 mL chloroform:methanol mixture (chloroform:methanol=1:1) was added to each glass tube. The tube was ultrasonicated in an ice bath for 30 minutes. The supernatant was transferred to a vial and evaporated to dryness. To the dried vial, 160 μL acetonitrile: isopropanol mixture (acetonitrile:isopropanol=1:1) was added, and 20 μL ceramide C12 internal standard solution was added (the ceramide internal standard solution having a concentration of 100 μg/mL, with the internal standard solvent being a 1:1 mixture of acetonitrile and isopropanol). The mixture was ultrasonicated for 10 minutes and shaken for dissolution for 30 minutes, transferred to a sample centrifuge tube, centrifuged at 12,000 rpm for 10 minutes, and 100 μL of the upper layer was transferred into a 250 μL insert. LC-MS detection was performed using a Thermo Fisher Orbitrap Q Exactive™ quadrupole-Orbitrap high-resolution mass spectrometer.
Mass spectrometry conditions were as follows: mass spectrometry analysis was performed using a quadrupole-Orbitrap mass spectrometer equipped with a heated electrospray ionization source. Ion source voltages for positive and negative modes were 3.7 kV and 3.5 kV, respectively. Capillary heating temperature was 320° C. Sheath gas pressure was 30 psi, and auxiliary gas pressure was 10 psi. Heated vaporizer temperature was 300° C. Both sheath gas and auxiliary gas were nitrogen. Collision gas was nitrogen at a pressure of 1.5 mTorr. Full MS scan parameters were: resolution 70,000; automatic gain control target 1×10^6; […] 50 ms; and m/z scan range 50-1500. The LC-MS system was controlled by Xcalibur 2.2 SP1.48 software, and data acquisition was also controlled by the software.

[3] = system: fibroblasts; experiment: Mitochondrial function in UV-A irradiated fibroblasts (mitochondrial ROS, ATP, NADP+/NADPH and JC-1 kits); details: 10-HDA 0.25 mg/mL, UV-A 30 J/cm^2, 24 hours after irradiation, relative to irradiated control; for inhibition at 250 µg/mL: Fibroblast, light or radiation study
Method: Fibroblasts were seeded into a 6-well plate at a seeding density of 2.2×10^5 cells/well and incubated overnight in an incubator (37° C., 5% CO2). When the confluence reached 40%-60%, 2 mL of culture medium containing a corresponding concentration of a test substance was added to each well according to different groups. The BC group was a blank control group without any drug intervention and was cultured only in 2 mL normal medium. The NC group was a negative control group without any drug intervention and was cultured only in 2 mL normal medium. The PC group was a positive control group containing VE at a final concentration of 7 μg/mL. The sample group contained 10-HDA at a final concentration of 0.25 mg/mL. After drug incubation for 24 hours, according to test grouping, the NC group, PC group, and sample group were subjected to UV-A irradiation at a dose of 30 J/cm^2. After irradiation, the cells were further cultured for 24 hours in an incubator (37° C., 5% CO2). After incubation, mitochondrial functions were assessed according to instructions of a mitochondrial ROS detection kit, a mitochondrial ATP detection kit (Beyotime), a mitochondrial NADP^+/NADPH detection kit (WST-8 method), and a JC-1 mitochondrial membrane potential detection kit.

[4] = system: fibroblasts; experiment: Telomere length by qPCR (T/S ratio) in H2O2-stimulated fibroblasts; details: positive control 1 mg/mL; cells from adult; H2O2 stimulation three days, 2 hours each; five passages
Method: Fibroblasts were seeded into a 6-well plate at a seeding density of 2.2×10^5 cells/well and incubated overnight in an incubator (37° C., 5% CO2). When the confluence reached 40%-60%, 2 mL of culture medium containing a corresponding concentration of a test substance was added to each well according to different groups. The BC group was a blank control group, wherein the cells were derived from back skin of children aged 7-8 years, and no drug intervention was performed during cultivation. The NC group was a negative control group, wherein the cells were derived from back skin of an adult. When the confluence reached 40%-60%, H2O2 stimulation was applied for three consecutive days, with each stimulation lasting 2 hours, and samples were collected for detection after continuous passaging for five passages. The PC group was a positive control group, wherein the cells were derived from back skin of an adult. When the confluence reached 40%-60%, H2O2 stimulation was applied for three consecutive days, with each stimulation lasting 2 hours. During the stimulation period, the cells were cultured in a medium containing cycloastragenol at a final concentration of 1 mg/mL. Samples were collected for detection after continuous passaging for five passages. […] Genomic DNA (gDNA) was obtained using a genomic DNA extraction kit, and telomere length was determined by qPCR using gDNA as a template.

Row | SMILES | inhibition at 250 µg/mL ([1]; immunofluorescence, read-out: γ-H2AX inhibition rate) [%] | inhibition at 250 µg/mL ([1]; read-out: 8-OHdG inhibition rate) [%] | ceramide/protein (total ceramide normalized by sample protein amount) increase [2] [%] | fatty acid/protein (total fatty acid normalized by sample protein amount) increase [2] [%] | total ceramide increase [2] [%] | total fatty acid increase [2] [%] | NADPH content increase [3] [%] | mitochondrial ATP content increase [3] [%] | inhibition at 250 µg/mL ([3]; read-out: early apoptosis rate inhibition rate) [%] | inhibition at 250 µg/mL ([3]; read-out: mitochondrial ROS inhibition rate) [%] | telomere length increase relative to the NC group [4] [%]
1 | O=C(O)C=CCCCCCCCO [10-HDA, 10-hydroxy-2-decenoic acid] | 47.2 | 45.1 | 47.64 | 39.0 | 35.37 | 27.51 | 15.13 | 56.23 | 12.7 | 70.7 | –
2 | CC(C)(O)[C@@H]1CC[C@](C)([C@H]2[C@@H](O)C[C@@]3(C)[C@@H]4C[C@H](O)[C@H]5C(C)(C)[C@@H](O)CC[C@@]56C[C@@]46CC[C@]23C)O1 [cycloastragenol, reference compound] | – | – | – | – | – | – | – | – | – | – | 43.1

— US20260160767A1, “Biosynthetic Method for Preparing 10-Hydroxy-2-Decenoic Acid and Use Thereof in Skin Care” (SHANDONG FREDA BIOTECH CO., LTD., priority 2023, published 2026)
